# Organism: Rattus norvegicus
# Test: Open TG-GATES - Regimen: Single
# Assay type: toxicity, organism-based, Sprague-Dawley
# Set-up: regimen Single, gender Male, age 6 weeks
# Conditions: in vivo, po, 0 mg/kg, route gavage, dose level Control; for APTT / Bas / Eos / Fbg / Hb / Ht / Lym / MCH / MCHC / MCV / Mono / Neu / PT / Plat / RBC / Ret / WBC: tissue Blood; for KIDNEY_L / KIDNEY_R / KIDNEY_TOTAL: tissue Kidney; for LIVER: tissue Liver; for A/G / ALP / ALT / AST / BUN / CRE / Ca / Cl / DBIL / GLC / IP / K / LDH / Na / PL / RALB / TBIL / TC / TG / TP / gamma-GTP: tissue Plasma
structure (smiles),measurement,setting,value
CCCc1cc(=O)[nH]c(=S)[nH]1 [PROPYLTHIOURACIL],TERMINAL_BW,3 h,182.7 g
same,APTT,3 h,15.8 s
same,Bas,3 h,0%
same,Eos,3 h,1%
same,Fbg,3 h,217.4 mg/dL
same,Hb,3 h,13.2 g/dL
same,Ht,3 h,39.8%
same,Lym,3 h,78.6%
same,MCH,3 h,22.3 pg
same,MCHC,3 h,33.3%
same,MCV,3 h,67.1 fL
same,Mono,3 h,6.2%
same,Neu,3 h,14.6%
same,PT,3 h,12.6 s
same,Plat,3 h,108.3 x10_4/uL
same,RBC,3 h,593.2 x10_4/ul
same,Ret,3 h,10.7%
same,WBC,3 h,86.3 x10_2/uL
same,KIDNEY_L,3 h,0.8 g
same,KIDNEY_R,3 h,0.8 g
same,KIDNEY_TOTAL,3 h,1.7 g
same,LIVER,3 h,8.7 g
same,A/G,3 h,2
same,ALP,3 h,886.8 IU/L
same,ALT,3 h,39.6 IU/L
same,AST,3 h,69.8 IU/L
same,BUN,3 h,13.2 mg/dL
same,CRE,3 h,0.4 mg/dL
same,Ca,3 h,11 mg/dL
same,Cl,3 h,105 meq/L
same,DBIL,3 h,0.024 mg/dL
same,GLC,3 h,192.6 mg/dL
same,IP,3 h,9.9 mg/dL
same,K,3 h,5 meq/L
same,LDH,3 h,87.6 IU/L
same,Na,3 h,138.6 meq/L
same,PL,3 h,140.2 mg/dL
same,RALB,3 h,3.6 g/dL
same,TBIL,3 h,0.3 mg/dL
same,TC,3 h,82.4 mg/dL
same,TG,3 h,37.2 mg/dL
same,TP,3 h,5.5 g/dL
same,gamma-GTP,3 h,0.8 IU/L
same,TERMINAL_BW,6 h,178.3 g
same,APTT,6 h,16.1 s
same,Bas,6 h,0%
same,Eos,6 h,0%
same,Fbg,6 h,206.8 mg/dL
same,Hb,6 h,13 g/dL
same,Ht,6 h,39.3%
same,Lym,6 h,80%
same,MCH,6 h,21.5 pg
same,MCHC,6 h,33.1%
same,MCV,6 h,64.8 fL
same,Mono,6 h,6.4%
same,Neu,6 h,13.6%
same,PT,6 h,12.6 s
same,Plat,6 h,107.1 x10_4/uL
same,RBC,6 h,606.2 x10_4/ul
same,Ret,6 h,10.4%
same,WBC,6 h,111.4 x10_2/uL
same,KIDNEY_L,6 h,0.8 g
same,KIDNEY_R,6 h,0.8 g
same,KIDNEY_TOTAL,6 h,1.6 g
same,LIVER,6 h,7.9 g
same,A/G,6 h,2.2
same,ALP,6 h,853.4 IU/L
same,ALT,6 h,34.2 IU/L
same,AST,6 h,66.8 IU/L
same,BUN,6 h,11.8 mg/dL
same,CRE,6 h,0.5 mg/dL
same,Ca,6 h,10.7 mg/dL
same,Cl,6 h,105.2 meq/L
same,DBIL,6 h,0.046 mg/dL
same,GLC,6 h,182 mg/dL
same,IP,6 h,10 mg/dL
same,K,6 h,5 meq/L
same,LDH,6 h,82.2 IU/L
same,Na,6 h,137.6 meq/L
same,PL,6 h,136.6 mg/dL
same,RALB,6 h,3.6 g/dL
same,TBIL,6 h,0.3 mg/dL
same,TC,6 h,80 mg/dL
same,TG,6 h,33.4 mg/dL
same,TP,6 h,5.4 g/dL
same,gamma-GTP,6 h,1.8 IU/L
same,TERMINAL_BW,9 h,175.9 g
same,APTT,9 h,16 s
same,Bas,9 h,0%
same,Eos,9 h,1.2%
same,Fbg,9 h,215.4 mg/dL
same,Hb,9 h,13.1 g/dL
same,Ht,9 h,39.7%
same,Lym,9 h,77.8%
same,MCH,9 h,22 pg
same,MCHC,9 h,33.1%
same,MCV,9 h,66.2 fL
same,Mono,9 h,6.2%
same,Neu,9 h,15.2%
same,PT,9 h,12.5 s
same,Plat,9 h,107.3 x10_4/uL
same,RBC,9 h,599.2 x10_4/ul
same,Ret,9 h,10.2%
same,WBC,9 h,95.1 x10_2/uL
same,KIDNEY_L,9 h,0.8 g
same,KIDNEY_R,9 h,0.9 g
same,KIDNEY_TOTAL,9 h,1.7 g
same,LIVER,9 h,7.6 g
same,A/G,9 h,2
same,ALP,9 h,741.2 IU/L
same,ALT,9 h,33.6 IU/L
same,AST,9 h,61.8 IU/L
same,BUN,9 h,13.8 mg/dL
same,CRE,9 h,0.5 mg/dL
same,Ca,9 h,10.6 mg/dL
same,Cl,9 h,107.4 meq/L
same,DBIL,9 h,0.006 mg/dL
same,GLC,9 h,195.4 mg/dL
same,IP,9 h,11.1 mg/dL
same,K,9 h,5.2 meq/L
same,LDH,9 h,102.4 IU/L
same,Na,9 h,139.8 meq/L
same,PL,9 h,132.2 mg/dL
same,RALB,9 h,3.6 g/dL
same,TBIL,9 h,0.4 mg/dL
same,TC,9 h,76 mg/dL
same,TG,9 h,35.6 mg/dL
same,TP,9 h,5.5 g/dL
same,gamma-GTP,9 h,2.2 IU/L
same,TERMINAL_BW,24 h,192.6 g
same,APTT,24 h,16.1 s
same,Bas,24 h,0%
same,Eos,24 h,1%
same,Fbg,24 h,211.2 mg/dL
same,Hb,24 h,13.2 g/dL
same,Ht,24 h,40%
same,Lym,24 h,76.6%
same,MCH,24 h,21.6 pg
same,MCHC,24 h,33%
same,MCV,24 h,65.5 fL
same,Mono,24 h,9%
same,Neu,24 h,13.6%
same,PT,24 h,12.4 s
same,Plat,24 h,104.6 x10_4/uL
same,RBC,24 h,611.6 x10_4/ul
same,Ret,24 h,9.6%
same,WBC,24 h,123.5 x10_2/uL
same,KIDNEY_L,24 h,0.8 g
same,KIDNEY_R,24 h,0.9 g
same,KIDNEY_TOTAL,24 h,1.7 g
same,LIVER,24 h,9.1 g
same,A/G,24 h,2
same,ALP,24 h,974.2 IU/L
same,ALT,24 h,46.2 IU/L
same,AST,24 h,70.2 IU/L
same,BUN,24 h,19.2 mg/dL
same,CRE,24 h,0.6 mg/dL
same,Ca,24 h,10.9 mg/dL
same,Cl,24 h,105.2 meq/L
same,DBIL,24 h,0.016 mg/dL
same,GLC,24 h,196.6 mg/dL
same,IP,24 h,7.9 mg/dL
same,K,24 h,5 meq/L
same,LDH,24 h,86.6 IU/L
same,Na,24 h,138.6 meq/L
same,PL,24 h,152.8 mg/dL
same,RALB,24 h,3.7 g/dL
same,TBIL,24 h,0.3 mg/dL
same,TC,24 h,83.2 mg/dL
same,TG,24 h,96.2 mg/dL
same,TP,24 h,5.6 g/dL
same,gamma-GTP,24 h,2.4 IU/L
